Legend:
[1] = Dynamic vapour sorption (DVS), wet weight gain; assay type: physicochemical; conditions: 25±1° C. and 80±2% RH
[2] = Crystal stability under humidity, heat and grinding; assay type: physicochemical; conditions: RT/92.5% RH 5 and 10 days; 60° C. 5 and 10 days; grinded 10/20/30 min
[3] = Rough solubility test of A-type crystal and salts of the compound of formula (I); conditions: for solubility: thermodynamic from solid; for Approximate solubility: room temperature
Method: Hydrochloric acid, acetic acid, sodium acetate, sodium chloride, 5% glucose solution, water (buffer is a buffer solution of acetic acid/sodium acetate).
2 mg of a sample was weighed, and dissolved by adding a solvent (10 μL) thereto at room temperature. […] The total amount of the added solvents was up to 2 mL.

[4] = Tissue distribution in SD rats after tail vein injection (LC/MS/MS); assay type: in vivo
Method: SD rats were used as test animals, and the drug concentrations in plasma, lung and breast tissues of rats at different times after administrating the compound of formula (I) via the injection in tail vein were measured by using LC/MS/MS method. The tissue distribution of the compound of the present invention in rats was investigated, and pharmacokinetic characteristics thereof were evaluated.
Appropriate amounts of samples were weighed, and Luminespib, Ganetespib and the compound of formula (I) of the present invention were respectively formulated into a clear solution with a concentration of 2.5 mg/mL for intravenous injection, wherein the solvent was consisted of 10% (v/v) of DMSO, 14% (v/v) of polyoxyethylene hydrogenated castor oil 40, and 76% (v/v) of 5% aqueous glucose solution.
9 SD male rats were divided into three groups, three rats per group. The rats were administered intravenously through tail vein at a dose of 1 mg/kg after being normally fed.
Samples of blood, lung and breast tissues were collected from the rats in three groups at 0.5, 6, and 24 hours after administration, respectively. The blood sample was separated by centrifugation at 4° C., 3000 rpm/min for 15 min within half an hour after collection, so as to obtain plasma sample. The resulting plasma sample was deposited in polypropylene tubes and stored at −80° C. for LC/MS/MS analysis. After blood sample was collected, the animals were sacrificed with CO2, and the tissue samples were collected. Each tissue sample was washed twice with cold deionized water and adhered onto filter paper. Each tissue sample was then homogenized several times in MeOH/15 mM PBS (1:2) (5 mL MeOH/15 mM PBS (1:2) per gram of tissue, with dilution coefficient of 6), to ensure the formation of homogeneous phase. The whole process was carried out at a freezing point temperature. The homogenized samples were quickly frozen by using dry ice and stored at −80° C. for bioassay.
The contents of the test compounds in the plasma, lung and breast tissues of the rats after the administration by injection were measured with LC/MS/MS method.

BT-474 tumor cells = assay: In vivo pharmacodynamic evaluation in BT-474 breast cancer transplanted tumors in nude mice
Method: BT-474 tumor cells were subcutaneously inoculated into the right axillary fossa of nude mice at 5×10^6/mouse to form transplanted tumors. When the volume thereof reached 100-200 mm^3, the animals were randomly grouped based on tumor volumes: 6 mice in negative control group; 6 mice in positive control group; and 6 mice in each test group. The mice in the treatment groups were intravenously injected with different concentrations of positive drug Ganetespib (20 mg/kg) and the compound of formula (I) (10 mg/kg and 20 mg/kg) three times a week, and the mice in the negative control group were administrated with equal amount of vehicles at the same time. The length (A) and width (B) of the tumor were measured twice a week by using a vernier caliper, and the tumor volume V=A×B^2/2 was thereby calculated. The calculation of relative tumor volume (RTV) follows: RTV=Vt/V0, wherein Vt was the tumor volume at the end of administration, and V0 was the tumor volume measured before administration to each cage. The pharmacodynamic evaluation index of antitumor activity was the relative tumor proliferation rate T/C (%), and the calculation formula was: TIC (%)=TRTV/CRTV×100%, wherein TRTV: RTV of the treatment group; CRTV: RTV of the negative control group. Therapeutic efficacy evaluation criteria: T/C %>60% was ineffective; T/C %≤60% with P<0.05 after being statistically processed was effective. […]

[5] = 0.9% NaCl solution, saline or isotonic
[6] = 5% glucose solution, saline or isotonic
[7] = acetic acid/sodium acetate buffer pH 3.5, pH 3.5, aqueous buffer
[8] = acetic acid/sodium acetate buffer pH 4.5, pH 4.5, aqueous buffer
[9] = acetic acid/sodium acetate buffer pH 5.5, pH 5.5, aqueous buffer
[10] = acetic acid/sodium acetate buffer pH 6.8, pH 6.8, aqueous buffer
[11] = acetic acid/sodium acetate buffer pH 7.5, pH 7.5, aqueous buffer
[12] = rats, injection dose of 1 mg/kg, same dose

Row | Compound | wet weight gain ΔW % [1] | solubility [3, 5] [µg/mL] | solubility [3, 6] [µg/mL] | solubility [3, 7] [µg/mL] | solubility [3, 8] [µg/mL] | solubility [3, 9] [µg/mL] | solubility [3, 10] [µg/mL] | solubility [3, 11] [µg/mL] | solubility ([3]; water) [µg/mL] | Lung exposure ([4]; SD rats, 1 mg/kg iv) [µM·h] | also measured
1 | CCNC(=O)c1onc(-c2cc(C(C)C)c(O)cc2O)c1-c1ccc2c(c1)CCNC2 [A-type crystal] | about 0.45% | < 1000 | < 1000 | 80000 to 100000 | 30000 to 50000 | < 1000 | < 1000 | < 1000 | < 1000 | – | crystal transformation [2]: no crystal transformation; solubility ([3]; 0.01N HCl, simulated gastric fluid): 800 to 1000 µg/mL; solubility ([3]; 0.1N HCl, simulated gastric fluid): < 1000 µg/mL; solubility ([3]; acetic acid/sodium acetate buffer pH 6.5, pH 6.5, aqueous buffer): < 1000 µg/mL
2 | CCNC(=O)c1onc(-c2cc(C(C)C)c(O)cc2O)c1-c1ccc2c(c1)CCNC2 [Compound of formula (I), 3(2,4dihydroxy-5-isopropylphenyl)-N-ethyl-4(1,2,3,4-tetrahydroisoquinolin-6-yl)isoxazole-5-carboxamide] | – | – | – | – | – | – | – | – | – | 30.933 | Breast tissue exposure ([4]; SD rats, 1 mg/kg iv): 7.226 µM·h; Plasma exposure ([4]; SD rats, 1 mg/kg iv): 0.415 µM·h; concentrations in lung and breast tissues compared with Luminespib and Ganetespib (in words) [4, 12]: significantly higher; tissue exposures compared with Luminespib and Ganetespib (in words) [4, 12]: significantly greater; TGI (%) (BT-474 tumor cells; 10 mpk iv three times a week, day 35 (administration stopped day 18)): 120%; antitumor effect compared with Ganetespib (in words) (BT-474 tumor cells; 10 mpk versus 20 mpk of Ganetespib, BT-474 transplanted mouse model): significantly superior antitumor effect; solubility depending on buffer pH (in words) ([3]; conclusion from Table 5): higher solubility in the buffer of pH 3.5-4.5
3 | CCNC(=O)c1noc(-c2cc(C(C)C)c(O)cc2O)c1-c1ccc(CN2CCOCC2)cc1 [Luminespib, 5[2,4dihydroxy-5-isopropylphenyl]-N-ethyl-4[4-(4-morpholinylmethyl)phenyl]-3-isoxazolecarboxamide, reference compound] | – | – | – | – | – | – | – | – | – | 5.284 | –
4 | CCNC(=O)c1onc(-c2cc(C(C)C)c(O)cc2O)c1-c1ccc2c(c1)CCNC2.Cl [hydrochloride, 3-(2,4-dihydroxy-5-isopropylphenyl)-N-ethyl-4-(1,2,3,4tetrahydroisoquinolin-6-yl)isoxazole-5-carboxamide hydrochloride] | – | < 2000 | 4600 to 5500 | 9500 to 14200 | 5800 to 7300 | < 2000 | < 2000 | < 2000 | 5300 to 6300 | – | solubility compared with A-type crystal (in words) ([3]; conclusion from Table 5): significantly higher solubilities than that of the A-type crystal
5 | O=S(=O)(O)O [sulfate] | about 0.081% | – | – | – | – | – | – | – | – | – | –
6 | maleate | about 0.379% | – | – | – | – | – | – | – | – | – | Approximate solubility ([3]; 0.9% NaCl solution): <2000 µg/mL; Approximate solubility ([3]; 5% glucose solution): 2100 to 2300 µg/mL; Approximate solubility ([3]; pH 3.5 buffer (acetic acid/sodium acetate)): 6500 to 7500 µg/mL; Approximate solubility ([3]; pH 4.5 buffer): 3400 to 3900 µg/mL; Approximate solubility ([3]; pH 5.5 buffer): <2000 µg/mL; Approximate solubility ([3]; pH 6.8 buffer): <2000 µg/mL; Approximate solubility ([3]; pH 7.5 buffer): <2000 µg/mL; Approximate solubility ([3]; water): 2200 to 2600 µg/mL
